Measurements as given in ChEMBL document CHEMBL3137667, “[Drug-induced liver injury; fourteenth updated edition of the bibliographic database of liver injuries and related drugs]” (Gastroenterol Clin Biol, 2004).

Columns and labels:
[1] = Highest frequency of acute liver toxicity observed during clinical trials, expressed as a percentage. [column '% AIGUE' in source]; settings: human
[2] = human
[3] = human; remark: listed apart in the source
[4] = human; remark: listed apart in the source
[5] = human; remark: listed apart in the source
[6] = human; remark: listed apart in the source
[7] = Highest frequency of moderate liver toxicity observed during clinical trials, expressed as a percentage. [column '% BIOL' in source]; settings: human
[8] = Times to onset, minimal and maximal, observed in the indexed observations. [column 'DELAI' in source]; settings: human
[9] = human, serum
[10] = human; remark: listed apart in the source
[11] = Proposed mechanism(s) of liver damage. [column 'MEC' in source]; settings: human
[12] = human; remark: listed apart in the source
[13] = human; remark: listed apart in the source
[14] = human, serum, 4383 h
[15] = human; remark: listed apart in the source
[16] = human, serum; remark: listed apart in the source
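Wherever Hepatotoxicity (association with vascular disease) is given: count of indexed literature references reporting vascular liver injury in humans, e.g. peliosis hepatitis, hepatic veno-occlusive disease or Budd-Chiari syndrome.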
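Wherever Hepatotoxicity (benign tumour) is given: value is a count of indexed literature references citing a benign tumour confirmed by histopathology.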
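Wherever Hepatotoxicity (choleostasis) is given: human cholestatic liver injury, shown by histopathology or by peak ALT or AST elevation over alkaline phosphatase ratio below 2, value counts indexed literature reports.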
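Wherever Hepatotoxicity (chronic liver disease) is given: chronic liver injury confirmed by histopathology or persistently raised serum aminotransferase activity beyond 6 months, value given as the count of indexed literature references.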
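Wherever Hepatotoxicity (cirrhosis) is given: value is a count of indexed literature references reporting cirrhosis confirmed by histopathology.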
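Wherever Hepatotoxicity (cytolytic) is given: human cytolytic liver injury, shown by histopathology or by a ratio above 5 of peak ALT or AST elevation to alkaline phosphatase elevation, value counts indexed references.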
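Wherever Hepatotoxicity (granulomatous hepatitis) is given: value is a count of indexed literature references reporting granulomatous liver disease confirmed by histopathology.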
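Wherever Hepatotoxicity (malignant tumour) is given: malignant tumour confirmed by histopathology, value gives the count of indexed literature references reporting it.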
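Wherever Hepatotoxicity (severe hepatitis) is given: human clinical data: severe hepatitis, meaning potentially life-threatening liver failure or clinically observed cases, the value counts how many indexed literature references report it.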
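Wherever Hepatotoxicity (steatosis) is given: steatosis confirmed by histopathology, value is the count of indexed references.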

CCn1cc(C(=O)O)c(=O)c2ccc(C)nc21 [NALIDIXIC ACID]
Hepatotoxicity (acute) [1]: 0% | Hepatotoxicity (cytolytic) [2]: 1 | Hepatotoxicity (steatosis) [3]: 0 | Hepatotoxicity (granulomatous hepatitis) [4]: 0 | Hepatotoxicity (malignant tumour) [5]: 0 | Hepatotoxicity (choleostasis) [6]: 2 | Hepatotoxicity (moderate) [7]: 0% | Hepatotoxicity (time to onset) [8]: 2 weeks | Hepatotoxicity (moderate) [9]: 2 | Hepatotoxicity (severe hepatitis) [10]: 0 | Hepatotoxicity (mechanism) [11]: Allergic | Hepatotoxicity (cirrhosis) [12]: 0 | Hepatotoxicity (association with vascular disease) [13]: 0 | Hepatotoxicity (chronic liver disease) [14]: 0 | Hepatotoxicity (benign tumour) [15]: 0

COc1c(N2C[C@@H]3CCCN[C@@H]3C2)c(F)cc2c(=O)c(C(=O)O)cn(C3CC3)c12 [MOXIFLOXACIN]
Hepatotoxicity (cytolytic) [2]: 0 | Hepatotoxicity (steatosis) [3]: 0 | Hepatotoxicity (granulomatous hepatitis) [4]: 0 | Hepatotoxicity (malignant tumour) [5]: 0 | Hepatotoxicity (choleostasis) [6]: 1 | Hepatotoxicity (moderate) ([7]; Liver): 6.9% | Hepatotoxicity (time to onset) [8]: 26 days | Hepatotoxicity (moderate) [9]: 3 | Hepatotoxicity (severe hepatitis) ([10]; Liver): 0 | Hepatotoxicity (mechanism) [11]: Dose-dependant | Hepatotoxicity (cirrhosis) [12]: 0 | Hepatotoxicity (association with vascular disease) [13]: 0 | Hepatotoxicity (chronic liver disease) [14]: 0 | Hepatotoxicity (benign tumour) [15]: 0

CC(C)(O)c1ccccc1CC[C@@H](SCC1(CC(=O)O)CC1)c1cccc(/C=C/c2ccc3ccc(Cl)cc3n2)c1 [MONTELUKAST]
Hepatotoxicity (cytolytic) [2]: 2 | Hepatotoxicity (steatosis) [3]: 0 | Hepatotoxicity (granulomatous hepatitis) [4]: 0 | Hepatotoxicity (malignant tumour) [5]: 0 | Hepatotoxicity (choleostasis) [6]: 2 | Hepatotoxicity (moderate) [7]: 13.9% | Hepatotoxicity (time to onset) [8]: 3 days - 2 years | Hepatotoxicity (moderate) [9]: 3 | Hepatotoxicity (severe hepatitis) [10]: 0 | Hepatotoxicity (mechanism) [11]: Allergic | Hepatotoxicity (cirrhosis) [12]: 0 | Hepatotoxicity (association with vascular disease) [13]: 0 | Hepatotoxicity (chronic liver disease) [14]: 0 | Hepatotoxicity (benign tumour) [15]: 0

PEGASPARGASE
Hepatotoxicity (acute) [1]: 7.7% | Hepatotoxicity (cytolytic) [2]: 0 | Hepatotoxicity (steatosis) [3]: 0 | Hepatotoxicity (granulomatous hepatitis) [4]: 0 | Hepatotoxicity (malignant tumour) [5]: 0 | Hepatotoxicity (choleostasis) [6]: 0 | Hepatotoxicity (moderate) [7]: 0% | Hepatotoxicity (acute) [16]: 2 | Hepatotoxicity (moderate) [9]: 0 | Hepatotoxicity (severe hepatitis) [10]: 0 | Hepatotoxicity (mechanism) [11]: Dose-dependant | Hepatotoxicity (cirrhosis) [12]: 0 | Hepatotoxicity (association with vascular disease) [13]: 0 | Hepatotoxicity (chronic liver disease) [14]: 0 | Hepatotoxicity (benign tumour) [15]: 0

CO[C@@H]1[C@@H](OC(N)=O)[C@@H](O)[C@H](Oc2ccc3c(O)c(NC(=O)c4ccc(O)c(CC=C(C)C)c4)c(=O)oc3c2C)OC1(C)C [NOVOBIOCIN]
Hepatotoxicity (acute) [1]: 0% | Hepatotoxicity (cytolytic) [2]: 2 | Hepatotoxicity (steatosis) [3]: 0 | Hepatotoxicity (granulomatous hepatitis) [4]: 0 | Hepatotoxicity (malignant tumour) [5]: 0 | Hepatotoxicity (choleostasis) [6]: 3 | Hepatotoxicity (moderate) [7]: 40% | Hepatotoxicity (acute) [16]: 5 | Hepatotoxicity (moderate) [9]: 2 | Hepatotoxicity (severe hepatitis) [10]: 2 | Hepatotoxicity (mechanism) [11]: Allergic, Dose-dependant | Hepatotoxicity (cirrhosis) [12]: 0 | Hepatotoxicity (association with vascular disease) [13]: 0 | Hepatotoxicity (chronic liver disease) [14]: 0 | Hepatotoxicity (benign tumour) [15]: 0

CO[C@@H]1[C@@H](N)[C@@H](O[C@H]2[C@H](Oc3cccc4c(O)c5c(=O)oc6ccc(C)c7c(=O)oc(c34)c5c67)O[C@H](C)[C@H](O)[C@]2(C)O)O[C@H](C)[C@@H]1O [ELSAMITRUCIN]
Hepatotoxicity (acute) [1]: 1.6% | Hepatotoxicity (cytolytic) [2]: 0 | Hepatotoxicity (steatosis) [3]: 0 | Hepatotoxicity (granulomatous hepatitis) [4]: 0 | Hepatotoxicity (malignant tumour) [5]: 0 | Hepatotoxicity (choleostasis) [6]: 0 | Hepatotoxicity (moderate) [7]: 13% | Hepatotoxicity (acute) [16]: 2 | Hepatotoxicity (moderate) [9]: 4 | Hepatotoxicity (severe hepatitis) [10]: 1 | Hepatotoxicity (mechanism) [11]: Dose-dependant | Hepatotoxicity (cirrhosis) [12]: 0 | Hepatotoxicity (association with vascular disease) [13]: 0 | Hepatotoxicity (chronic liver disease) [14]: 0 | Hepatotoxicity (benign tumour) [15]: 0

CNCCNc1ccc2c3c(nn2CCNCCO)-c2c(O)ccc(O)c2C(=O)c13 [TELOXANTRONE]
Hepatotoxicity (acute) [1]: 10.5% | Hepatotoxicity (cytolytic) [2]: 1 | Hepatotoxicity (steatosis) [3]: 0 | Hepatotoxicity (granulomatous hepatitis) [4]: 0 | Hepatotoxicity (malignant tumour) [5]: 0 | Hepatotoxicity (choleostasis) [6]: 1 | Hepatotoxicity (moderate) [7]: 36.8% | Hepatotoxicity (acute) [16]: 1 | Hepatotoxicity (moderate) [9]: 2 | Hepatotoxicity (severe hepatitis) [10]: 0 | Hepatotoxicity (mechanism) [11]: Dose-dependant | Hepatotoxicity (cirrhosis) [12]: 0 | Hepatotoxicity (association with vascular disease) [13]: 0 | Hepatotoxicity (chronic liver disease) [14]: 0 | Hepatotoxicity (benign tumour) [15]: 0

CCCCCCCCCCCCCCCCSCC(COC)COP(=O)([O-])OCC[N+](C)(C)C (stereo not drawn) [ILMOFOSINE]
Hepatotoxicity (acute) [1]: 0% | Hepatotoxicity (cytolytic) [2]: 0 | Hepatotoxicity (steatosis) [3]: 0 | Hepatotoxicity (granulomatous hepatitis) [4]: 0 | Hepatotoxicity (malignant tumour) [5]: 0 | Hepatotoxicity (choleostasis) [6]: 0 | Hepatotoxicity (moderate) [7]: 71.4% | Hepatotoxicity (acute) [16]: 0 | Hepatotoxicity (moderate) [9]: 5 | Hepatotoxicity (severe hepatitis) [10]: 0 | Hepatotoxicity (mechanism) [11]: Dose-dependant | Hepatotoxicity (cirrhosis) [12]: 0 | Hepatotoxicity (association with vascular disease) [13]: 0 | Hepatotoxicity (chronic liver disease) [14]: 0 | Hepatotoxicity (benign tumour) [15]: 0

Nc1nc2[nH]cc(CCc3ccc(C(=O)N[C@@H](CCC(=O)O)C(=O)O)cc3)c2c(=O)[nH]1 [PEMETREXED]
Hepatotoxicity (acute) [1]: 0% | Hepatotoxicity (cytolytic) [2]: 0 | Hepatotoxicity (steatosis) [3]: 0 | Hepatotoxicity (granulomatous hepatitis) [4]: 0 | Hepatotoxicity (malignant tumour) [5]: 0 | Hepatotoxicity (choleostasis) [6]: 0 | Hepatotoxicity (moderate) [7]: 100% | Hepatotoxicity (acute) [16]: 0 | Hepatotoxicity (moderate) [9]: 1 | Hepatotoxicity (severe hepatitis) [10]: 0 | Hepatotoxicity (mechanism) [11]: Dose-dependant | Hepatotoxicity (cirrhosis) [12]: 0 | Hepatotoxicity (association with vascular disease) [13]: 0 | Hepatotoxicity (chronic liver disease) [14]: 0 | Hepatotoxicity (benign tumour) [15]: 0

CC(C)(O/N=C(\C(=O)N[C@@H]1C(=O)N2C(C(=O)[O-])=C(C[n+]3ccccc3)CS[C@H]12)c1csc(N)n1)C(=O)O [CEFTAZIDIME]
Hepatotoxicity (acute) [1]: 2.5% | Hepatotoxicity (cytolytic) [2]: 0 | Hepatotoxicity (steatosis) [3]: 0 | Hepatotoxicity (granulomatous hepatitis) [4]: 0 | Hepatotoxicity (malignant tumour) [5]: 0 | Hepatotoxicity (choleostasis) [6]: 2 | Hepatotoxicity (moderate) [7]: 35.7% | Hepatotoxicity (acute) [16]: 2 | Hepatotoxicity (moderate) [9]: 77 | Hepatotoxicity (severe hepatitis) [10]: 0 | Hepatotoxicity (mechanism) [11]: Dose-dependant | Hepatotoxicity (cirrhosis) [12]: 0 | Hepatotoxicity (association with vascular disease) [13]: 0 | Hepatotoxicity (chronic liver disease) [14]: 0 | Hepatotoxicity (benign tumour) [15]: 0

COc1nc(C)ccc1CN1CC1C#N (stereo not drawn) [CIAMEXON]
Hepatotoxicity (acute) [1]: 0% | Hepatotoxicity (cytolytic) [2]: 0 | Hepatotoxicity (steatosis) [3]: 0 | Hepatotoxicity (granulomatous hepatitis) [4]: 0 | Hepatotoxicity (malignant tumour) [5]: 0 | Hepatotoxicity (choleostasis) [6]: 0 | Hepatotoxicity (moderate) [7]: 14% | Hepatotoxicity (acute) [16]: 0 | Hepatotoxicity (moderate) [9]: 2 | Hepatotoxicity (severe hepatitis) [10]: 0 | Hepatotoxicity (mechanism) [11]: Dose-dependant | Hepatotoxicity (cirrhosis) [12]: 0 | Hepatotoxicity (association with vascular disease) [13]: 0 | Hepatotoxicity (chronic liver disease) [14]: 0 | Hepatotoxicity (benign tumour) [15]: 0
